Experimental findings from PubChem BioAssay AID330 (DTP/NCI, 2004) are described below.

This test concerns P388 leukemia ip, CD2F1 mice, survival T/C. Description: NCI In Vivo Anticancer Drug Screen. Data for tumor model P388 Leukemia (intraperitoneal) in CD2F1 (CDF1) mice. As to conditions: endpoint: median survival time, higher = longer survival. In a few lines: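 Mice carrying the transplanted tumor received test compound or vehicle. Survival was recorded in each group, and the value is the treated-group measurement divided by that of the vehicle-treated control group.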

[1] abbreviates: dose: 100.0 mg/kg/injection, schedule: Q04DX002 (ip), vehicle: saline.
Setting [2] is: dose: 50.0 mg/kg/injection, schedule: Q01DX005 (ip), vehicle: Klucel (hydroxypropylcellulose) (HPC).
The mark [3] stands for this setting: dose: 100.0 mg/kg/injection, schedule: Q01DX005 (ip), vehicle: Klucel (hydroxypropylcellulose) (HPC).
Setting [4] is: dose: 200.0 mg/kg/injection, schedule: Q01DX005 (ip), vehicle: Klucel (hydroxypropylcellulose) (HPC).
Setting [5] is: dose: 12.5 mg/kg/injection, schedule: Q01DX009 (ip), vehicle: Klucel (hydroxypropylcellulose) (HPC).
Where [6] appears, read: dose: 50.0 mg/kg/injection, schedule: Q01DX009 (ip), vehicle: saline with Tween-80.
Setting [7] is: dose: 100.0 mg/kg/injection, schedule: Q01DX009 (ip), vehicle: saline with Tween-80.
Where [8] appears, read: dose: 200.0 mg/kg/injection, schedule: Q01DX009 (ip), vehicle: saline with Tween-80.
[9] abbreviates: dose: 50.0 mg/kg/injection, schedule: Q01DX005 (ip), vehicle: saline with Tween-80.
Where [10] appears, read: dose: 100.0 mg/kg/injection, schedule: Q01DX005 (ip), vehicle: saline with Tween-80.
The mark [11] stands for this setting: dose: 200.0 mg/kg/injection, schedule: Q01DX005 (ip), vehicle: saline with Tween-80.
The mark [12] stands for this setting: dose: 100.0 mg/kg/injection, schedule: Q04DX003 (ip), vehicle: saline.

Where “and” joins values, the source holds several entries; their conditions need not be identical. Identical values can stand only once. Inconclusive results and toxic doses are left out.

As for `COc1cc(CCNC(C)=O)c(NC=O)cc1OC`, the T/C is 108 % of control under setting [1]; 105 % of control (dose: 200.0 mg/kg/injection, schedule: Q04DX002 (ip), vehicle: saline); 99 % of control (dose: 400.0 mg/kg/injection, schedule: Q04DX002 (ip), vehicle: saline).

As to `CN1CSC(=S)NCCNC(=S)SC1`, the T/C runs as follows: under setting [2], 87 % of control; under setting [3], 94 % of control; under setting [4], 87 % of control.

On to `O=C1C(C(=Nc2ccc3ccccc3c2)c2ccccc2)=C(O)c2ccccc21`, for which the T/C is 100 % of control (dose: 25.0 mg/kg/injection, schedule: Q04DX002 (ip), vehicle: saline with Tween-80); 102 % of control (dose: 50.0 mg/kg/injection, schedule: Q04DX002 (ip), vehicle: saline with Tween-80); 89 % of control (dose: 100.0 mg/kg/injection, schedule: Q04DX002 (ip), vehicle: saline with Tween-80).

As to `FC(F)(F)c1cccc(N=Cc2ccc(C=Nc3cccc(C(F)(F)F)c3)cc2)c1`, the T/C was 99 % of control (dose: 50.0 mg/kg/injection, schedule: Q01DX009 (ip), vehicle: saline); 99 % of control (dose: 100.0 mg/kg/injection, schedule: Q01DX009 (ip), vehicle: saline); 97 % of control (dose: 200.0 mg/kg/injection, schedule: Q01DX009 (ip), vehicle: saline).

Take `Clc1cc(Cl)c2n[se]nc2n1`: the T/C is 100 % of control (dose: 25.0 mg/kg/injection, schedule: Q04DX002 (ip), vehicle: saline); 106 % of control (dose: 50.0 mg/kg/injection, schedule: Q04DX002 (ip), vehicle: saline); 116 % of control and 123 % of control under setting [1].

Take `CC(C)CCC(=O)OCCN1CCN(CCCN2c3ccccc3Sc3ccc(C(F)(F)F)cc32)CC1`: the T/C was 114 % of control and 117 % of control under setting [5]; 116 % of control (dose: 25.0 mg/kg/injection, schedule: Q01DX009 (ip), vehicle: Klucel (hydroxypropylcellulose) (HPC)).

Regarding `Nc1ccc(S(=O)(=O)c2cc(O)c3ccccc3c2O)cc1`, where the note is “dose: 50.0 mg/kg/injection, schedule: Q01DX009 (ip), vehicle: Klucel (hydroxypropylcellulose) (HPC)”, the T/C was 104 % of control.

For `O[Si](c1ccccc1)(c1ccccc1)c1ccccc1.O[Si](c1ccccc1)(c1ccccc1)c1ccccc1.O[Si](c1ccccc1)(c1ccccc1)c1ccccc1.[O]=[V]`, the T/C is, setting by setting: under setting [2], 92 % of control; under setting [3], 90 % of control; under setting [4], 92 % of control.

Regarding `C=C(C)C(=O)OC1C/C(CO)=C\C(O)C/C(C)=C/C2OC(=O)C(=C)C21` (stereo not given), the T/C is, setting by setting: (dose: 1.25 mg/kg/injection, schedule: Q01DX009 (ip), vehicle: saline + alcohol) 121 % of control; (dose: 2.5 mg/kg/injection, schedule: Q01DX009 (ip), vehicle: saline + alcohol) 104 % of control; (dose: 10.0 mg/kg/injection, schedule: Q01DX009 (ip), vehicle: saline + alcohol) 159 % of control; (dose: 20.0 mg/kg/injection, schedule: Q01DX009 (ip), vehicle: saline + alcohol) 167 % of control.

For the compound `O=C1C(Cl)=C(Nc2ccc(C#Cc3ccccc3)cc2)C(=O)C(Cl)=C1Nc1ccc(C#Cc2ccccc2)cc1`, the T/C is 91 % of control under setting [6], 91 % of control under setting [7] and 87 % of control under setting [8].

Consider `Cc1ccc2ccccc2c1C(=N)c1cc2ccccc2c2ccccc12`, for which the T/C by setting is: under setting [2], 105 % of control; under setting [3], 87 % of control.

Regarding `CC1(C)C(=NOCc2ccccc2)C(C)(C)C1=NOCc1ccccc1`, the T/C was 91 % of control under setting [9], 87 % of control under setting [10] and 86 % of control under setting [11].

Turning to `CCOc1cc2c(cc1C(C)c1ccc(OC(C)C)cc1)OCO2` (stereo not given), the T/C (dose: 25.0 mg/kg/injection, schedule: Q01DX005 (ip), vehicle: saline with Tween-80) is 108 % of control; the T/C under setting [9] is 106 % of control; the T/C under setting [10] is 103 % of control; the T/C under setting [11] was 103 % of control.

As to `COc1cc2c(cc1O)-c1[nH]ncc1CCC2`, the T/C by setting is: under setting [12], 101 % of control; (dose: 200.0 mg/kg/injection, schedule: Q04DX003 (ip), vehicle: saline) 97 % of control; (dose: 400.0 mg/kg/injection, schedule: Q04DX003 (ip), vehicle: saline) 102 % of control.

In the case of `COC(=O)CCSCc1ccccc1`, the T/C was 100 % of control (dose: 60.0 mg/kg/injection, schedule: Q01DX005 (ip), vehicle: saline); 100 % of control (dose: 120.0 mg/kg/injection, schedule: Q01DX005 (ip), vehicle: saline); 109 % of control (dose: 240.0 mg/kg/injection, schedule: Q01DX005 (ip), vehicle: saline).

Regarding `COC(=O)Cn1/c(=N\N=C\c2ccc([N+](=O)[O-])cc2)sc2ccccc21`, the T/C was 86 % of control (dose: 12.5 mg/kg/injection, schedule: Q01DX001 (ip), vehicle: saline with Tween-80); 86 % of control (dose: 25.0 mg/kg/injection, schedule: Q01DX001 (ip), vehicle: saline with Tween-80); 92 % of control (dose: 50.0 mg/kg/injection, schedule: Q01DX001 (ip), vehicle: saline with Tween-80); 90 % of control (dose: 400.0 mg/kg/injection, schedule: Q01DX001 (ip), vehicle: saline with Tween-80).

With `CCCCN(CCCC)P(=O)(N1CC1)N1CC1`, the T/C by setting is: (dose: 6.25 mg/kg/injection, schedule: Q01DX009 (ip), vehicle: saline) 118 % of control; (dose: 16.5 mg/kg/injection, schedule: Q01DX009 (ip), vehicle: saline) 175 % of control; under setting [12], 90 % of control.

Consider `[CH2+][B-]1(C)n2ccc[n+]2[B-](C)(C)[n+]2cccn21`, for which the T/C was 90 % of control (dose: 60.0 mg/kg/injection, schedule: Q01DX005 (ip), vehicle: saline with Tween-80); 98 % of control (dose: 120.0 mg/kg/injection, schedule: Q01DX005 (ip), vehicle: saline with Tween-80); 93 % of control (dose: 240.0 mg/kg/injection, schedule: Q01DX005 (ip), vehicle: saline with Tween-80).

For the compound `C=CC1CC(NC(=O)c2ccccc2)C(=O)O1` (stereo not given), the T/C is, setting by setting: under setting [9], 101 % of control; under setting [10], 104 % of control; under setting [11], 99 % of control.

As for `CN1CCC(c2ccccc2)(c2ccccc2)C(=O)C1`, the T/C reads like this: under setting [6], 100 % of control and 104 % of control; under setting [7], 109 % of control and 111 % of control and 114 % of control; under setting [8], 118 % of control and 123 % of control.

`CC(C)=CCn1c2ccccc2c(=O)c2ccccc21`: the T/C was 112 % of control under setting [9], 105 % of control under setting [10] and 107 % of control under setting [11].

For the compound `O=NNc1ccc2ccccc2n1`, the T/C reads like this: (dose: 3.12 mg/kg/injection, schedule: Q01DX009 (ip), vehicle: water) 122 % of control; (dose: 25.0 mg/kg/injection, schedule: Q01DX009 (ip), vehicle: water) 91 % of control and 94 % of control.

With `C/C(=N\NC(=S)N1CC2CCC(CC2)C1)c1ccccn1`, the T/C is, setting by setting: (dose: 1.56 mg/kg/injection, schedule: Q01DX009 (ip), vehicle: Klucel (hydroxypropylcellulose) (HPC)) 101 % of control and 118 % of control; (dose: 3.12 mg/kg/injection, schedule: Q01DX009 (ip), vehicle: Klucel (hydroxypropylcellulose) (HPC)) 107 % of control; (dose: 3.13 mg/kg/injection, schedule: Q01DX009 (ip), vehicle: Klucel (hydroxypropylcellulose) (HPC)) 120 % of control; (dose: 6.25 mg/kg/injection, schedule: Q01DX009 (ip), vehicle: Klucel (hydroxypropylcellulose) (HPC)) 115 % of control and 123 % of control; under setting [5], 115 % of control.

For the compound `COc1ccc(S(=O)(=O)c2cc(C)c3ccc4ccccc4c3n2)cc1`, the T/C runs as follows: under setting [2], 101 % of control; under setting [3], 102 % of control; under setting [4], 98 % of control.

Turning to `NNc1nc(N2CCCCC2)ns1`, the T/C (dose: 2.5 mg/kg/injection, schedule: Q01DX009 (ip), vehicle: saline with Tween-80) is 98 % of control; the T/C (dose: 5.0 mg/kg/injection, schedule: Q01DX009 (ip), vehicle: saline with Tween-80) was 110 % of control; the T/C (dose: 10.0 mg/kg/injection, schedule: Q01DX009 (ip), vehicle: saline with Tween-80) was 120 % of control.

On to `C[C@]12C[C@@H](O)[C@H]3[C@@H](CCC4=C(O)C(=O)CC[C@@]43C)[C@@H]1CC[C@@H]2O`, for which the T/C reads like this: (dose: 12.5 mg/kg/injection, schedule: Q01DX005 (ip), vehicle: Klucel (hydroxypropylcellulose) (HPC)) 97 % of control; (dose: 25.0 mg/kg/injection, schedule: Q01DX005 (ip), vehicle: Klucel (hydroxypropylcellulose) (HPC)) 105 % of control; under setting [2], 101 % of control; under setting [3], 90 % of control; under setting [4], 95 % of control.
